Results reported in ChEMBL document CHEMBL4376820, “Homodimeric Tobramycin Adjuvant Repurposes Novobiocin as an Effective Antibacterial Agent against Gram-Negative Bacteria” (J Med Chem, 2019).
Activity calls are given as the source filed them. No cut-off for these calls is given here.

Columns and labels:
Acinetobacter baumannii [1] = test: Antibacterial activity against wild type Acinetobacter baumannii ATCC 17978 assessed as resistant development at sub-MIC measured after 7 days of passaging by microbroth dilution method relative to control; assay type: functional
Acinetobacter baumannii [2] = test: Antibacterial activity against novobiocin-resistant Acinetobacter baumannii ATCC 17978 mutant generated from seven serial passages by checkerboard assay; assay type: functional
Acinetobacter baumannii [3] = test: Antibacterial activity against colistin-resistant Acinetobacter baumannii ATCC 17978 mutant generated from seven serial passages by checkerboard assay; assay type: functional
Acinetobacter baumannii [4] = test: Antibacterial activity against novobiocin and test compound-resistant Acinetobacter baumannii ATCC 17978 mutant generated from seven serial passages in presence of novobiocin by checkerboard assay; assay type: functional
Acinetobacter baumannii [5] = test: Antibacterial activity against wild type Acinetobacter baumannii ATCC 17978 by checkerboard assay; assay type: functional
Pseudomonas aeruginosa = test: Induction of outer membrane permeabilization in Pseudomonas aeruginosa PAO1 assessed as increase in accumulation of NPN by measuring fluorescence intensity at 14 ug/ml measured immediately by NPN dye uptake assay; assay type: organism-based

Compound | fold change (FC) (Acinetobacter baumannii [1]) | MIC (Acinetobacter baumannii [2]) [µg/mL] | MIC (Acinetobacter baumannii [3]) [µg/mL] | MIC (Acinetobacter baumannii [4]) [µg/mL] | MIC (Acinetobacter baumannii [5]) [µg/mL] | Activity (Pseudomonas aeruginosa)
COLISTIN | 1024 | 8 | 1020 | 0.031 | 0.063 | 
NC[C@H]1O[C@H](O[C@H]2[C@H](O)[C@@H](O[C@H]3O[C@H](CO)[C@@H](O)[C@H](N)[C@H]3O)[C@H](N)C[C@@H]2N)[C@H](N)C[C@@H]1O [TOBRAMYCIN] | 512 | 1 | 0.25 | 1 | 1 | inactive
